From patent US5607544A, “Process and agent for the oxidative bleaching of wood pulp and for deinking waste paper” (BK Ladenburg GmbH fur Chemische Erzeugnisse, priority 1994, dated 1997)

What was measured:
[1] = test system: catalase; test: Catalase test: pressure increase after hydrogen peroxide addition to deinking process water of a paper factory; format: biochemical; settings: 0.1% hydrogen peroxide
Procedure: (§1) The catalase test depends upon the measurement of the increase of the pressure in an airtight-closed vessel after the introduction of 0.1% hydrogen peroxide. With increasing concentration of catalase in a sample, the pressure to be measured increases correspondingly. The pressure is given as an electric signal in relative units (mV). The pressure increase is measured after 10 minutes.

[2] = biological target: T1, enzyme catalase (No. C10 Sigma catalogue) (Bos taurus, UniProt P00432); test: Action on the pure enzyme catalase, absorption decrease at 240 nm; format: biochemical
T1 construct: purchased Sigma C10
T1 sequence (P00432 2-527 limits assumed): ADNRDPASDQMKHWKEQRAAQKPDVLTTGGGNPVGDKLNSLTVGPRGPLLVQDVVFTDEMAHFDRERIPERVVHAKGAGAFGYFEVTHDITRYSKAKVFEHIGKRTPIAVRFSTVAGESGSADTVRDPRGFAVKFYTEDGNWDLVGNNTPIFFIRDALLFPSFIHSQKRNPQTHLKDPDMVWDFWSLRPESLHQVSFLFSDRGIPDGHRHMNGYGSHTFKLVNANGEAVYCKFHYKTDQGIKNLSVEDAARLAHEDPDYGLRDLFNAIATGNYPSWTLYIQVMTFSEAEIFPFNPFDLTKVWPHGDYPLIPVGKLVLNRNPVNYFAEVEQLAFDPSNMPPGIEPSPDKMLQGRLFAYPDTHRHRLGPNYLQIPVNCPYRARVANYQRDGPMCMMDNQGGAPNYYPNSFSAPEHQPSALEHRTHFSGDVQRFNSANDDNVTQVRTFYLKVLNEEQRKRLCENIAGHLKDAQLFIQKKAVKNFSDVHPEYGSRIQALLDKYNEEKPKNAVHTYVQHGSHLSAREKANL
Procedure: phosphate buffer 0.05M, pH 7.0 (K2 HPO4 : 8.7 g/l; KH2 PO4 : 6.8 g/l)
enzyme catalase (No. C10 Sigma catalogue)
substrate hydrogen peroxide (30%).
Dissolve catalase in 0.05M phosphate buffer.
Concentration: 50 sigma units per ml of buffer.
Dissolve 0.1 ml 30% hydrogen peroxide in 50 ml of 0.05M phosphate buffer (control) or in 50 ml phosphate buffer which contains the stabiliser (substrate). Measure the absorption at 240 nm. The result must lie between 0.550 and 0.520. Possibly dilute the solution or add more hydrogen peroxide thereto.
2.9 ml of solution B are placed in a quartz cuvette and subsequently mixed with 0.1 ml of solution A. The absorption at 240 nm should, at the beginning of the measurement, amount to approximately 0.450. The time needed for the decrease of the absorption at 240 nm from 0.450 to 0.400 is determined. This time corresponds to the conversion of 3.45 μmol hydrogen peroxide in 3 ml of sample volume.
(sigma units total)=3.45: time (minutes calculating back to active sigma units 1 sigma unit reacts 1.0 μmol hydrogen peroxide per minute (at pH 7.0; 25° C.).

[3] = Laboratory deinking experiment with process water 1 (whiteness, flotate, ash, residual peroxide); settings: 0 sample 15.7%
Procedure: Into 1 liter of water of 30° dH (tap water) are introduced:
(§2) Into the pulper (2800 r.p.m.) are introduced 50 g of atro waste paper and the chemical solution is subsequently introduced. The pulping time is 10 minutes. After ending of the brushing out time, the paper slurry is shaken out into a glass beaker, stirred up with a commercially available ultrasonic disperser and the pH value determined.
The pH value is 9.5±0.2. 100 ml are taken from the brushed out suspension and a sheet formed (degree of whiteness and brightness before the flotation).
(§3) The remaining fibre material is placed for 110 minutes in a waterbath with a temperature of 50° C. After the residence time, it is dispersed with a disperser for 1 minute at 10,000 r.p.m. The paper slurry is emptied into a flotation cell which is filled with water with a temperature of 50° C. There is thereby adjusted a material density of 0.8% (pH value 8.5). Air is introduced into the cell at a rate of 60 liters/hour and the speed of stirring is 1000 r.p.m. The flotation time is 10 minutes, foam being skimmed off manually. After the flotation is ended, acidification is carried out with sulphuric acid to pH 5 and sheets are formed.
The brightness and degree of whiteness are measured on the front and rear side and the average value determined.
R 457: reflection factor at 457 nm wavelength
Y/C: standard type of light C/1931
Process water 1 was used. The statements of percentage refer to the commercial product and the residual peroxide was determined by a titration method.

[4] = Residual peroxide content by iodometric titration in deinking process water samples
Excerpt: The measurement of the residual peroxide content took place by iodometric titration.
The initial peroxide content corresponds to 100% (=0.1% hydrogen peroxide (100%)).

[5] = Flotation experiment in tap water without waterglass (stability of hydrogen peroxide); settings: no waterglass; for residual peroxide: 0 sample 15%
Procedure: as §2, §3
In the case of this experiment, working was analogous to Example 3 but tap water was used instead of process water. […] At the same time, in the case of this experiment, the addition of waterglass as stabiliser is omitted.

[6] = test system: catalase; test: Pressure increase after hydrogen peroxide addition to process water 3 (rate of decomposition of peroxide); format: biochemical; settings: 400 ppm referred to process water volume, 0.1% hydrogen peroxide, after 10 minutes, ambient temperature, 0 sample 9.8
Procedure: as §1
As sample, there was used process water 3 and worked up analogously to Example 1. After the addition of 0.1% hydrogen peroxide (referred to 100% hydrogen peroxide), there was measured the pressure increase in relative pressure units (in mV) after 10 minutes. The measurement took place at ambient temperature.

[7] = 400 ppm active substance, pressure increase after 10 minutes, comparison sample without additive 9.8

N#CC(Br)(Br)C(N)=O [DBNPA, 2,2-dibromo-3-nitrilopropionamide]
pressure in relative units [1, 7]: > 9.0 mV

N#CSCSC#N [MBT, methylene bisthiocyanate]
pressure in relative units [1, 7]: 6.2 mV

CNC(=S)S [MDTCMA, monomethylammonium monomethyl dithiocarbamate]
pressure in relative units [1, 7]: > 9.0 mV

OCl [Sodium hypochlorite]
action on the pure enzyme catalase (in words) ([2]; solution B (hydrogen peroxide in phosphate buffer)): reacts in solution B with hydrogen peroxide with decomposition before catalase can be added

OC[P+](CO)(CO)CO [THPS, tetrakishydroxymethylphosphonium sulphate]
pressure in relative units [1, 7]: > 9.0 mV

O=CCCCC=O [glutaraldehyde]
inhibition at 0.5 ppm ([2]; 0.5 ppm, pH 7.0): 6%
inhibition at 2.5 ppm ([2]; 2.5 ppm, pH 7.0): 9%
inhibition at 5 ppm ([2]; 5 ppm, pH 7.0): 11%

CNC(=S)S [metamsodium, sodium monomethyldithiocarbamate]
pressure in relative units [1, 7]: 5.0 mV

O=C(C(Cl)=NO)c1ccc(O)cc1 [paraclox, 2-oxo-2-(4-hydroxyphenyl)-acethydroximic acid chloride]
residual peroxide ([3]; paraclox 0.02%): 21.4%
residual peroxide ([3]; paraclox 0.04%): 28.5%
residual peroxide ([3]; paraclox 0.08%): 49.7%
residual peroxide content ([4]; Process water 1 (clear filtrate), 10 ppm, 0 min.): 100%
residual peroxide content ([4]; Process water 1 (clear filtrate), 10 ppm, 30 min.): 55.4%
residual peroxide content ([4]; Process water 1 (clear filtrate), 10 ppm, 60 min.): 43.1%
residual peroxide content ([4]; Process water 1 (clear filtrate), 10 ppm, 90 min.): 33.8%
residual peroxide content ([4]; Process water 1 (clear filtrate), 10 ppm, 120 min.): 26.9%
residual peroxide content ([4]; Process water 1 (clear filtrate), 100 ppm, 0 min.): 100%
residual peroxide content ([4]; Process water 1 (clear filtrate), 100 ppm, 30 min.): 95.4%
residual peroxide content ([4]; Process water 1 (clear filtrate), 100 ppm, 60 min.): 87.7%
residual peroxide content ([4]; Process water 1 (clear filtrate), 100 ppm, 90 min.): 87.7%
residual peroxide content ([4]; Process water 1 (clear filtrate), 100 ppm, 120 min.): 86.1%
residual peroxide content ([4]; Process water 2 (drum 1), 2 ppm, 0 min.): 100%
residual peroxide content ([4]; Process water 2 (drum 1), 2 ppm, 30 min.): 3.6%
residual peroxide content ([4]; Process water 2 (drum 1), 2 ppm, 60 min.): 0%
residual peroxide content ([4]; Process water 2 (drum 1), 2 ppm, 90 min.): 0%
residual peroxide content ([4]; Process water 2 (drum 1), 2 ppm, 120 min.): 0%
residual peroxide content ([4]; Process water 2 (drum 1), 20 ppm, 0 min.): 100%
residual peroxide content ([4]; Process water 2 (drum 1), 20 ppm, 30 min.): 62.1%
residual peroxide content ([4]; Process water 2 (drum 1), 20 ppm, 60 min.): 56.8%
residual peroxide content ([4]; Process water 2 (drum 1), 20 ppm, 90 min.): 50.8%
residual peroxide content ([4]; Process water 2 (drum 1), 20 ppm, 120 min.): 47%
inhibition at 0.2 ppm ([2]; 0.2 ppm, pH 7.0): 0%
inhibition at 1 ppm ([2]; 1 ppm, pH 7.0): 16%
inhibition at 2 ppm ([2]; 2 ppm, pH 7.0): 63%
pressure in relative units ([1]; 10 ppm active substance, after 10 minutes): 4.2 mV
pressure in relative units ([1]; 100 ppm active substance, after 10 minutes): 0.5 mV
pressure in relative units [1, 7]: 0.2 mV
stabilising action on the peroxide (in words) [5]: very good stabilising action on the peroxide
residual peroxide ([5]; paraclox 0.02%): 34.0%
residual peroxide ([5]; paraclox 0.04%): 41.0%
residual peroxide ([5]; paraclox 0.08%): 52.4%
pressure increase in relative pressure units [6]: 0.2 mV
